The target in this assay is T1, human TLR7 (Homo sapiens, UniProt Q9NYK1).
T1 sequence (Q9NYK1 27-1049): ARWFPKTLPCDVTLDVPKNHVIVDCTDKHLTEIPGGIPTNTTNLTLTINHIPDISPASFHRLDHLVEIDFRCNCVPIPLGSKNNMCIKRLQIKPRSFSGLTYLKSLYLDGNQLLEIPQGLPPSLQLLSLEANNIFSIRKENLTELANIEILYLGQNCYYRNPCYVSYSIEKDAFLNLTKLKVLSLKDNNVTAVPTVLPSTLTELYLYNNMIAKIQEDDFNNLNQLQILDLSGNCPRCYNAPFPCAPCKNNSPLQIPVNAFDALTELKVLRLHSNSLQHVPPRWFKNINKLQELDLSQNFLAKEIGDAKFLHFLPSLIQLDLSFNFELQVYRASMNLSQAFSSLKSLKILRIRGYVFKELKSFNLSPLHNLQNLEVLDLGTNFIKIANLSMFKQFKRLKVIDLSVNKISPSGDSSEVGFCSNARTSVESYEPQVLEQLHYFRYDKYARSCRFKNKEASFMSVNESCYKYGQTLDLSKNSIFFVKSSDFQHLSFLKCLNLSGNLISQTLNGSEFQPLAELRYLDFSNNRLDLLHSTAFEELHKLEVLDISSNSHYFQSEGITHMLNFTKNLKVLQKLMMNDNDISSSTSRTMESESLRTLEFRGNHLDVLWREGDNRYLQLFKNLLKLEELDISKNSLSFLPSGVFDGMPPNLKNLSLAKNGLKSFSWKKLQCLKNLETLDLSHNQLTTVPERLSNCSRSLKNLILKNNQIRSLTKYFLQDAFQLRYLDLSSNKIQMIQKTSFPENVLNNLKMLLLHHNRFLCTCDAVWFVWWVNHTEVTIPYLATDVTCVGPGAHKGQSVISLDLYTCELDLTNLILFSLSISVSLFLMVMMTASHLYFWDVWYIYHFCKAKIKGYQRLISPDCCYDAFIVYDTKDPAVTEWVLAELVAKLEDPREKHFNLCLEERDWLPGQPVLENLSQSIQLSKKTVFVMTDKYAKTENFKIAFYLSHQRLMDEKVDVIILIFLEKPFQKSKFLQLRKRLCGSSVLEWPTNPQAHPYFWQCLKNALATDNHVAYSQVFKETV
In words: HEK293-Blue-hTLR-7 cells assay. The assay is classed as cell-based. Conditions: HEK293-Blue-hTLR7 cells, R848 stimulation, 20 hrs, SEAP reporter; read-out: HEK/hTLR7 IC50. The method, boiled down: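 HEK293-Blue-hTLR7 cells (NF-κB/AP-1-driven SEAP reporter) incubated with serially diluted compound (1% DMSO final) and R848 agonist for 20 h at 37 °C. Supernatant SEAP measured with QUANTI-Blue (2 h, 37 °C) by absorbance at 620-655 nm; antagonism seen as reduced reporter.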
In the case of `C[C@@H]1CN(c2ccc(C#N)c3ncccc23)C[C@@H]2c3ccc(NCCN4CC[C@H](O)C4)cc3CN12` [Example 68, 5-[(4R,10bS)-8-[2-[(3S)-3-hydroxypyrrolidin-1-yl]ethylamino]-4-methyl-3,4,6,10b-tetrahydro-1H-pyrazino[2,1-a]isoindol-2-yl]quinoline-8-carbonitrile], the IC50 came out at 3.3 nM.

With `C[C@@H]1CN(c2ccc(C#N)c3ncccc23)C[C@@H]2c3ccc(N4C[C@H]5CNCCN5C4=O)cc3CN12` [Example 72, 5-[(4R,10bS)-8-[(8aR)-3-oxo-1,5,6,7,8,8a-hexahydroimidazo[1,5-a]pyrazin-2-yl]-4-methyl-3,4,6,10b-tetrahydro-1H-pyrazino[2,1-a]isoindol-2-yl]quinoline-8-carbonitrile], the IC50 was < 3.2 nM.

For `C[C@@H]1CN(c2ccc(C#N)c3ncccc23)C[C@@H]2c3ccc(N[C@H]4CNCCOC4)cc3CN12` [Example 56B, 5-[(4R,10bS)-4-methyl-8-[[(6S)-1,4-oxazepan-6-yl]amino]-3,4,6,10b-tetrahydro-1H-pyrazino[2,1-a]isoindol-2-yl]quinoline-8-carbonitrile], the IC50 turned out to be 4.5 nM. The same measure for `C[C@@H]1CN(c2ccc(C#N)c3ncsc23)C[C@@H]2c3ccc(N[C@H]4CNC[C@H]4F)cc3CN12` [Example 78, 7-[(4R,10bS)-8-[[(3S,4R)-4-fluoropyrrolidin-3-yl]amino]-4-methyl-3,4,6,10b-tetrahydro-1H-pyrazino[2,1-a]isoindol-2-yl]-1,3-benzothiazole-4-carbonitrile]: 1.2 nM.

For the compound `C[C@@H]1CN(c2ccc(C#N)c3ncccc23)C[C@@H]2c3ccc(OC[C@@H]4C[C@H](F)CN4)cc3CN12` [Example 74, 5-[(4R,10bS)-8-[[(2S,4S)-4-fluoropyrrolidin-2-yl]methoxy]-4-methyl-3,4,6,10b-tetrahydro-1H-pyrazino[2,1-a]isoindol-2-yl]quinoline-8-carbonitrile], the IC50 came out at 3.9 nM.

Regarding `C[C@@H]1CN(c2ccc(C#N)c3ncccc23)C[C@@H]2c3ccc(C(=O)N4CCC(C)(N)CC4)cc3CN12` [Example 88, 5-[(4R,10bS)-8-(4-amino-4-methyl-piperidine-1-carbonyl)-4-methyl-3,4,6,10b-tetrahydro-1H-pyrazino[2,1-a]isoindol-2-yl]quinoline-8-carbonitrile], the IC50 was 3.7 nM. As for `C[C@@H]1CN(c2ccc(C#N)c3ncccc23)C[C@@H]2c3ccc(NCC4COCCN4)cc3CN12` (stereo partly drawn) [Example 57, 5-[(4R,10bS)-4-methyl-8-(morpholin-3-ylmethylamino)-3,4,6,10b-tetrahydro-1H-pyrazino[2,1-a]isoindol-2-yl]quinoline-8-carbonitrile], the IC50 was 11.1 nM.

With `C[C@@H]1CN(c2ccc(C#N)c3ncccc23)C[C@@H]2c3ccc(NC[C@H]4CNCCO4)cc3CN12` [Example 59, 5-[(4R,10bS)-4-methyl-8-[[(2R)-morpholin-2-yl]methylamino]-3,4,6,10b-tetrahydro-1H-pyrazino[2,1-a]isoindol-2-yl]quinoline-8-carbonitrile], the IC50 was < 3.2 nM. To `C[C@@H]1CN(c2ccc(C(F)(F)F)c3nccnc23)C[C@@H]2c3ccc(N[C@H]4CNC[C@H]4F)cc3CN12` [Example 77, (4R,10bS)—N-[(3S,4R)-4-fluoropyrrolidin-3-yl]-4-methyl-2-[8-(trifluoromethyl)quinoxalin-5-yl]-3,4,6,10b-tetrahydro-1H-pyrazino[2,1-a]isoindol-8-amine] belongs 12.6 nM; to `CO[C@H]1CNC[C@@H]1N(C)c1ccc2c(c1)CN1[C@H](C)CN(c3ccc(C#N)c4ncccc34)C[C@H]21` [Example 64, 5-[(4R,10bS)-8-[[(3S,4S)-4-methoxypyrrolidin-3-yl]-methyl-amino]-4-methyl-3,4,6,10b-tetrahydro-1H-pyrazino[2,1-a]isoindol-2-yl]quinoline-8-carbonitrile], < 3.2 nM.

For the compound `CO[C@H]1CNC[C@H]1Nc1ccc2c(c1)CN1[C@H](C)CN(c3ccc(C#N)c4ncccc34)C[C@H]21` [Example 61, 5-[(4R,10bS)-8-[[(3R,4S)-4-methoxypyrrolidin-3-yl]amino]-4-methyl-3,4,6,10b-tetrahydro-1H-pyrazino[2,1-a]isoindol-2-yl]quinoline-8-carbonitrile], the IC50 is 5.7 nM. The same measure for `C[C@@H]1CN(c2ccc(C#N)c3ncccc23)C[C@@H]2c3ccc(NC[C@@H]4CNCCO4)cc3CN12` [Example 58, 5-[(4R,10bS)-4-methyl-8-[[(2S)-morpholin-2-yl]methylamino]-3,4,6,10b-tetrahydro-1H-pyrazino[2,1-a]isoindol-2-yl]quinoline-8-carbonitrile]: < 3.2 nM; for `CO[C@@H]1CNC[C@@H]1Nc1ccc2c(c1)CN1[C@H](C)CN(c3ccc(C#N)c4ncccc34)C[C@H]21` [Example 60, 5-[(4R,10bS)-8-[[(3S,4R)-4-methoxypyrrolidin-3-yl]amino]-4-methyl-3,4,6,10b-tetrahydro-1H-pyrazino[2,1-a]isoindol-2-yl]quinoline-8-carbonitrile]: 3.2 nM; for `C[C@@H]1CN(c2ccc(C#N)c3ncccc23)C[C@@H]2c3cc(F)c(N4CC5CNCC(C4)O5)cc3CN12` [Example 85, 5-[(4R,10bS)-9-fluoro-4-methyl-8-(9-oxa-3,7-diazabicyclo[3.3.1]nonan-3-yl)-3,4,6,10b-tetrahydro-1H-pyrazino[2,1-a]isoindol-2-yl]quinoline-8-carbonitrile]: 6.9 nM. The same measure for `C[C@@H]1CN(c2ccc(C#N)c3ncccc23)C[C@@H]2c3ccc(N[C@@H]4CNCCOC4)cc3CN12` [Example 56A, 5-[(4R,10bS)-4-methyl-8-[[(6R)-1,4-oxazepan-6-yl]amino]-3,4,6,10b-tetrahydro-1H-pyrazino[2,1-a]isoindol-2-yl]quinoline-8-carbonitrile]: 11.1 nM; for `Cc1ccc(N2C[C@@H](C)N3Cc4cc(N[C@H]5CNC[C@H]5F)ccc4[C@H]3C2)c2nccnc12` [Example 76, (4R,10bS)—N-[(3S,4R)-4-fluoropyrrolidin-3-yl]-4-methyl-2-(8-methylquinoxalin-5-yl)-3,4,6,10b-tetrahydro-1H-pyrazino[2,1-a]isoindol-8-amine]: 22.8 nM; for `CO[C@H]1CNC[C@@H]1Nc1ccc2c(c1)CN1[C@H](C)CN(c3ccc(C#N)c4ncccc34)C[C@H]21` [Example 62, 5-[(4R,10bS)-8-[[(3S,4S)-4-methoxypyrrolidin-3-yl]amino]-4-methyl-3,4,6,10b-tetrahydro-1H-pyrazino[2,1-a]isoindol-2-yl]quinoline-8-carbonitrile]: 5.9 nM. On to `CO[C@H]1CNCC[C@H]1Nc1ccc2c(c1)CN1[C@H](C)CN(c3ccc(C#N)c4ncccc34)C[C@H]21` [Example 66, 5-[(4R,10bS)-8-[[(3S,4R)-3-methoxy-4-piperidyl]amino]-4-methyl-3,4,6,10b-tetrahydro-1H-pyrazino[2,1-a]isoindol-2-yl]quinoline-8-carbonitrile], for which the IC50 is < 3.2 nM.

As for `C[C@@H]1CN(c2ccc(C#N)c3ncccc23)C[C@@H]2c3cc(F)c(N4C[C@H](N)[C@@](C)(O)C4)cc3CN12` [Example 83, 5-[(4R,10bS)-8-[(3S,4S)-4-amino-3-hydroxy-3-methyl-pyrrolidin-1-yl]-9-fluoro-4-methyl-3,4,6,10b-tetrahydro-1H-pyrazino[2,1-a]isoindol-2-yl]quinoline-8-carbonitrile], the IC50 was found to be 2.7 nM. Regarding `N#Cc1ccc(N2CCN3Cc4cc(N5CCNCC5)ccc4C3C2)c2cccnc12` (stereo not shown) [Example 3, 5-(8-piperazin-1-yl-3,4,6,10b-tetrahydro-1H-pyrazino[2,1-a]isoindol-2-yl)quinoline-8-carbonitrile], the IC50 stood at 42.6 nM.

Take `C[C@@H]1CN(c2ccc(C#N)c3ncccc23)C[C@@H]2c3ccc(NC[C@@H]4C[C@H](F)CN4)cc3CN12` [Example 70, 5-[(4R,10bS)-8-[[(2S,4S)-4-fluoropyrrolidin-2-yl]methylamino]-4-methyl-3,4,6,10b-tetrahydro-1H-pyrazino[2,1-a]isoindol-2-yl]quinoline-8-carbonitrile]: the IC50 was 9 nM. To `C[C@@H]1CN(c2ccc(C#N)c3ncccc23)C[C@@H]2c3ccc(NCC4(F)CNC4)cc3CN12` [Example 69, 5-[(4R,10bS)-8-[(3-fluoroazetidin-3-yl)methylamino]-4-methyl-3,4,6,10b-tetrahydro-1H-pyrazino[2,1-a]isoindol-2-yl]quinoline-8-carbonitrile] belongs 18.2 nM.

The record behind these values is US12157746B2, “Tetrahydro-1H-pyrazino[2,1-a]isoindolylquinoline compounds for the treatment of autoimmune disease” (F. HOFFMANN-LA ROCHE AG, priority 2018, dated 2024).
